Several values for one entry are separate records, joined by “and”; a condition that tells them apart may be missing. Equal values may be shown once. Toxic doses and inconclusive results are not listed. Rule as the data show it: active = T/C of 150% or more; inactive = T/C below 125%.
System: L1210 leukemia ip in BDF1 mice, survival T/C
Assay: NCI In Vivo Anticancer Drug Screen. Data for tumor model L1210 Leukemia (intraperitoneal) in B6D2F1 (BDF1) mice
Settings: endpoint: mean survival time, higher = longer survival
Summary of the method: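 Survival endpoint. Drug-treated group vs vehicle group, expressed as T divided by C. Tumor passaged by transplantation.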

[1] = dose: 25.6 mg/kg/injection, schedule: Q04DX002 (ip), vehicle: saline with Tween-80
[2] = dose: 64.0 mg/kg/injection, schedule: Q04DX002 (ip), vehicle: saline with Tween-80
[3] = dose: 160.0 mg/kg/injection, schedule: Q04DX002 (ip), vehicle: saline with Tween-80
[4] = dose: 400.0 mg/kg/injection, schedule: Q04DX002 (ip), vehicle: saline with Tween-80
[5] = dose: 100.0 mg/kg/injection, schedule: Q04DX003 (ip), vehicle: saline
[6] = dose: 200.0 mg/kg/injection, schedule: Q04DX003 (ip), vehicle: saline
[7] = dose: 400.0 mg/kg/injection, schedule: Q04DX003 (ip), vehicle: saline
[8] = dose: 100.0 mg/kg/injection, schedule: Q04DX002 (ip), vehicle: Klucel (hydroxypropylcellulose) (HPC)
[9] = dose: 200.0 mg/kg/injection, schedule: Q04DX002 (ip), vehicle: Klucel (hydroxypropylcellulose) (HPC)
[10] = dose: 400.0 mg/kg/injection, schedule: Q04DX002 (ip), vehicle: Klucel (hydroxypropylcellulose) (HPC)
[11] = dose: 100.0 mg/kg/injection, schedule: Q04DX003 (ip), vehicle: saline with Tween-80
[12] = dose: 400.0 mg/kg/injection, schedule: Q04DX003 (ip), vehicle: saline with Tween-80
[13] = dose: 100.0 mg/kg/injection, schedule: Q04DX002 (ip), vehicle: saline
[14] = dose: 200.0 mg/kg/injection, schedule: Q04DX002 (ip), vehicle: saline
[15] = dose: 400.0 mg/kg/injection, schedule: Q04DX002 (ip), vehicle: saline
[16] = dose: 100.0 mg/kg/injection, schedule: Q01DX009 (ip), vehicle: saline with Tween-80
[17] = dose: 200.0 mg/kg/injection, schedule: Q01DX009 (ip), vehicle: saline with Tween-80
[18] = dose: 400.0 mg/kg/injection, schedule: Q01DX009 (ip), vehicle: saline with Tween-80
[19] = dose: 100.0 mg/kg/injection, schedule: Q01DX009 (ip), vehicle: Klucel (hydroxypropylcellulose) (HPC)
[20] = dose: 100.0 mg/kg/injection, schedule: Q04DX003 (ip), vehicle: Klucel (hydroxypropylcellulose) (HPC)
[21] = dose: 200.0 mg/kg/injection, schedule: Q01DX009 (ip), vehicle: Klucel (hydroxypropylcellulose) (HPC)
[22] = dose: 200.0 mg/kg/injection, schedule: Q04DX003 (ip), vehicle: Klucel (hydroxypropylcellulose) (HPC)
[23] = dose: 400.0 mg/kg/injection, schedule: Q04DX003 (ip), vehicle: Klucel (hydroxypropylcellulose) (HPC)
[24] = dose: 50.0 mg/kg/injection, schedule: Q01DX009 (ip), vehicle: Klucel (hydroxypropylcellulose) (HPC)
[25] = dose: 100.0 mg/kg/injection, schedule: Q01DX001 (ip), vehicle: Klucel (hydroxypropylcellulose) (HPC)
[26] = dose: 200.0 mg/kg/injection, schedule: Q01DX001 (ip), vehicle: Klucel (hydroxypropylcellulose) (HPC)
[27] = dose: 400.0 mg/kg/injection, schedule: Q01DX001 (ip), vehicle: Klucel (hydroxypropylcellulose) (HPC)
[28] = dose: 75.0 mg/kg/injection, schedule: Q01DX001 (ip), vehicle: saline
[29] = dose: 150.0 mg/kg/injection, schedule: Q01DX001 (ip), vehicle: saline

Measured: T/C

CC(=O)OCC(OC(C)=O)C(OC(C)=O)C(COC(C)=O)OC(C)=O (configuration not stated)
inactive: [1] 108 % of control | [2] 104 % of control | [3] 93 % of control | [4] 93 % of control

CC(=O)NC1(CO)CCCCC1
inactive: [5] 105 % of control | [6] 95 % of control | [7] 94 % of control

CC/C(=C(/CC)c1ccc(OP(=O)(O)O)cc1)c1ccc(OP(=O)(O)O)cc1
inactive: dose: 100.0 mg/kg/injection, schedule: Q01DX001 (ip), vehicle: carboxymethylcellulose (CMC) 108 % of control | dose: 100.0 mg/kg/injection, schedule: Q01DX001 (ip), vehicle: water 101 % of control | dose: 100.0 mg/kg/injection, schedule: Q04DX003 (sc), vehicle: olive oil, sesame oil, peanut oil 103 % of control | dose: 200.0 mg/kg/injection, schedule: Q01DX001 (ip), vehicle: carboxymethylcellulose (CMC) 95 % of control | dose: 200.0 mg/kg/injection, schedule: Q01DX001 (ip), vehicle: water 97 % of control | dose: 200.0 mg/kg/injection, schedule: Q04DX003 (sc), vehicle: olive oil, sesame oil, peanut oil 102 % of control | dose: 400.0 mg/kg/injection, schedule: Q01DX001 (ip), vehicle: carboxymethylcellulose (CMC) 106 % of control | dose: 400.0 mg/kg/injection, schedule: Q01DX001 (ip), vehicle: water 98 % of control | dose: 400.0 mg/kg/injection, schedule: Q04DX003 (sc), vehicle: olive oil, sesame oil, peanut oil 107 % of control

CCS(=O)(=O)c1ncc2cnccn12
inactive: dose: 50.0 mg/kg/injection, schedule: Q01DX009 (ip), vehicle: water 98 % of control | dose: 100.0 mg/kg/injection, schedule: Q01DX009 (ip), vehicle: water 98 % of control and 101 % of control | dose: 100.0 mg/kg/injection, schedule: Q04DX003 (ip), vehicle: water 93 % of control | dose: 200.0 mg/kg/injection, schedule: Q01DX009 (ip), vehicle: water 105 % of control and 110 % of control | dose: 200.0 mg/kg/injection, schedule: Q04DX003 (ip), vehicle: water 95 % of control

O=C(O)CCC(NC(=O)/C=C/c1ccc([N+](=O)[O-])cc1)C(=O)O (configuration not stated)
inactive: [8] 107 % of control | [9] 88 % of control | [10] 91 % of control

CCN(CC)CCNCCO
inactive: dose: 100.0 mg/kg/injection, schedule: Q01DX009 (ip), vehicle: saline 89 % of control | [5] 95 % of control | dose: 200.0 mg/kg/injection, schedule: Q01DX009 (ip), vehicle: saline 94 % of control | [6] 92 % of control | dose: 400.0 mg/kg/injection, schedule: Q01DX009 (ip), vehicle: saline 89 % of control | [7] 92 % of control

CCCCC(C)(C)COc1nc(OCC(C)(C)CCCC)nc(OCC(C)(C)CCCC)n1
inactive: [1] 97 % of control | [2] 87 % of control | [11] 89 % of control | [4] 91 % of control | [12] 89 % of control

CC(C)(C)NCc1cc(C(C)(C)C)cc(-c2ccccc2)c1O
inactive: dose: 100.0 mg/kg/injection, schedule: Q01DX001 (ip), vehicle: saline 100 % of control | [5] 97 % of control | dose: 200.0 mg/kg/injection, schedule: Q01DX001 (ip), vehicle: saline 101 % of control | [6] 90 % of control | dose: 400.0 mg/kg/injection, schedule: Q01DX001 (ip), vehicle: saline 99 % of control

Cc1ccc(S(=O)(=O)OCC2C(COS(=O)(=O)c3ccc(C)cc3)C3C4C5C2C2C3C4C52)cc1 (configuration not stated)
inactive: [8] 98 % of control | [9] 90 % of control | [10] 94 % of control

Nc1ccc2ncccc2c1N
inactive: [13] 107 % of control | [14] 100 % of control | [15] 87 % of control

CCCCCCC(C)O[Si](C)c1ccccc1C (configuration not stated)
inactive: [16] 98 % of control | [11] 98 % of control | [17] 100 % of control | dose: 200.0 mg/kg/injection, schedule: Q04DX003 (ip), vehicle: saline with Tween-80 98 % of control | [18] 111 % of control | [12] 98 % of control

CCOC(=O)CCC(N)C(=O)O (configuration not stated)
inactive: [13] 110 % of control | [14] 106 % of control | [15] 102 % of control

CCCCCCCCNC1=C(OC)C(=O)C(NCCCCCCCC)=C(OC)C1=O
inactive: [19] 98 % of control | [20] 96 % of control | [21] 104 % of control | [22] 91 % of control | dose: 400.0 mg/kg/injection, schedule: Q01DX009 (ip), vehicle: Klucel (hydroxypropylcellulose) (HPC) 98 % of control | [23] 88 % of control

Cc1cc2no[n+]([O-])c2cc1C
inactive: [24] 108 % of control | [25] 100 % of control | [19] 106 % of control | [26] 96 % of control | [21] 114 % of control

C[Si](C)(C)Cc1cccc(F)c1
inactive: [1] 93 % of control | [2] 90 % of control | [3] 87 % of control | [4] 97 % of control

NC(=O)COc1c(F)c(F)c(F)c(F)c1F
inactive: [16] 101 % of control | [17] 101 % of control | [18] 97 % of control

c1ccc2c(CCCc3nccc4ccccc34)nccc2c1
inactive: [25] 102 % of control | [20] 108 % of control | [26] 104 % of control | [22] 108 % of control | [27] 108 % of control | [23] 102 % of control

CN(N=O)C(=O)NC1C(CO)OC2OC(C)(C)OC21 (configuration not stated)
inactive: dose: 100.0 mg/kg/injection, schedule: Q01DX009 (ip), vehicle: saline sonified 124 % of control | dose: 400.0 mg/kg/injection, schedule: Q01DX009 (ip), vehicle: saline sonified 119 % of control

Cc1ccc(S(=O)(=O)NN=C2CCCCC2)cc1
inactive: [28] 90 % of control | [29] 90 % of control | dose: 300.0 mg/kg/injection, schedule: Q01DX001 (ip), vehicle: saline 90 % of control

Oc1ccc2ccccc2c1C(c1ccccc1)N1CCCCC1 (configuration not stated)
inactive: [25] 94 % of control | [26] 97 % of control | [27] 103 % of control

CCOC(=O)C1C(=O)C(C(C(=O)OC2CC(C)CCC2C(C)C)N(CCCl)CCCl)C(=O)C(C(=O)OCC)C1c1ccc(O)cc1 (configuration not stated) (tested in a mixture with another compound)
inactive: [24] 93 % of control | [19] 109 % of control | [21] 111 % of control

Cc1c(C(=O)O)nnn1-c1ccccc1
inactive: [28] 97 % of control | [29] 96 % of control

— PubChem BioAssay AID248 (DTP/NCI, 2004)
